Test results taken from US7132568B2, “Aspartyl protease inhibitors” (Sunesis Pharmaceuticals, Inc., priority 2002, dated 2006).
pIC50, pKi: −log10 of the molar value.

Columns and labels:
[1] = test system: H4 neuroglioma cells stably transfected with APP (H4 β695wt); assay: Cell-based Aβ secretion assay (sandwich ELISA) in H4 cells; conditions: Homo sapiens
Text: This example describes an illustrative set of cell-based assays for testing the ability of the compounds of the present invention to inhibit the secretion of the Aβ peptide from cells expressing high levels of the human amyloid precursor protein (“APP”).
A representative set of such cells include A-204 rhabdomyosarcoma cells, human embryonic kidney 293 cells transiently transfected with APP, Chinese hamster ovary cells stably transfected with APP (CHO2B7), and H4 neuroglioma cells stably transfected with APP (H4 β695wt). The A-204 cells and HEK 293 cells were obtained from ATCC. For HEK 293 transient transfections, a pcDNA3 plasmid containing the human APP gene was obtained from Invitrogen, and cells were transfected with FuGENE 6 transfection reagent (Roche) following manufacturer's protocols. The CHO2B7 and H4 β695 wt lines were obtained from Mayo Clinic (J. Neuroscience Methods 108(2): 171–9 (2001)). […]
In the assay, cells were pre-treated with compounds for 1–2 hours to “wash out” any Aβ in the secretory pathway prior to incubation with compounds for the conditioning period required to generate detectable concentrations of Aβ. The production of secreted Aβ in cultured cells was monitored by sandwich ELISA, using the anti-Aβ monoclonal antibodies 6E10 and 4G8 (Signet Laboratories). […]

Cat D = Cat D (Homo sapiens, UniProt P07339); assay: Cat D Ki determination (DABCYL/EDANS substrate); format: biochemical
Protocol: The Ki determination for Cat D was performed using the assay conditions derived from Haque et al., J. Med. Chem. 42: 1428–1440 (1999) and the following substrate: DABCYL-GLu-Arg-Nle-Phe-Leu-Ser-Phe-Pro-EDANS where Nle is norleucine and DABCYL and EDANS are as previously defined.

[2] = Metabolic stability in human liver microsomes; format: in vitro ADME; conditions: pH 7.4
Protocol: Metabolic stability was determined by incubating the compounds with human liver microsomes (100 μg/ml) in 100 mM Tris buffer pH 7.4 for 5 minutes at 37° C. Metabolic reactions were started by addition of NADPH to give a final concentration of […]. Reactions were stopped after 30 and 60 minutes by addition of acetonitrile. Protein was precipitated by centrifugation (3000 rpm×10 min) then supernatants were analyzed for remaining parent compound by LC/MS/MS.

[3] = Plasma stability in human plasma; format: in vitro ADME; conditions: 37° C.
Protocol: Plasma stability was determined by incubating the compounds in human plasma at a concentration of 1 μM at 37° C. for 0, 30 and 60 minutes. Reactions were stopped by addition of acetonitrile. Protein was precipitated by centrifugation (3000 rpm×10 min) then supernatants were analyzed for remaining parent compound by LC/MS/MS.

Chain of Cat D (P07339 65-412): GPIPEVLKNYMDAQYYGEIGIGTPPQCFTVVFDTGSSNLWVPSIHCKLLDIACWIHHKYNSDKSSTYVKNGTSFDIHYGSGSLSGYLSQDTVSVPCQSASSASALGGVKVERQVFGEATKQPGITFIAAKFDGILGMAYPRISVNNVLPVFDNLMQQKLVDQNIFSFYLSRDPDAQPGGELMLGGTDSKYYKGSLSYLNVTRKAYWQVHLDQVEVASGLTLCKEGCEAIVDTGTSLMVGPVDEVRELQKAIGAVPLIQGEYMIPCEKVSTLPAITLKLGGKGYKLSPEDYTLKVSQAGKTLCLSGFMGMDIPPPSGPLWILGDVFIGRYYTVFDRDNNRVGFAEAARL

SMILES | pIC50 [1] | pKi (Cat D) | preference for BACE over Cat D (Cat D; Cat D Ki versus BACE Ki) | recovery at 60 min [2] | recovery at 1 h, 1 μM [3] | preference for Cat D over BACE (Cat D; BACE Ki versus Cat D Ki)
CCCN(CCC)C(=O)c1cccc(C(=O)N[C@@H](CC(C)C)[C@@H](N)C[C@@H](C)C(=O)N[C@H](C(=O)NCc2ccccc2)C(C)C)c1 [R = NH2] | 6.13 | 6.21 | over a three fold preference for BACE over Cat D | 43% | 100% | –
CCCN(CCC)C(=O)c1cccc(C(=O)N[C@@H](CC(C)C)[C@@H](O)C[C@@H](C)C(=O)N[C@H](C(=O)NCc2ccccc2)C(C)C)c1 [R = OH] | 5.70 | 7.70 | – | 0% | 100% | 7.5 fold
